Data set [1] concerns B16M-F10/Tet-Bcl-2. Briefly: Survival of mice carrying B16M-F10/Tet-Bcl-2 metastases. Format: in vivo. The following applies: 20 mg/kg i.v. daily, none 12 ± 1. The protocol: (§1) Hepatic metastases were induced by i.v. inoculations (portal vein), in anesthetized mice (Nembutal, 50 mg/kg i.p.), of 4×10^5 viable B16M-F10 cells suspended in 0.2 ml of DMEM. The mice were sacrificed by cervical dislocation 10 days after inoculation. The livers were fixed by immersion for 24 hours at 22° C. in 10% formaldehyde in PBS (pH 7.4), and were subsequently embedded in paraffin. The density of metastases (average number of foci/100 mm^3 of liver detected in fifteen sections of 10×10 mm^2 per liver) and the volume of metastases (average percentage of liver volume occupied by metastases) were determined as described previously (22).
(§2) This methodology makes it possible for the effect of PTER and QUER to be studied in vivo. […] The number of adhering cells shown in the table was calculated at 60 minutes postinjection (no significant differences were found when the measurements were effected at 30, 120, 180, 240 or 360 minutes postinjection, data not shown). The number of intact cells was calculated at 6 hours postinjection. […] The growth of metastases in the liver was evaluated as stated in the corresponding section of the description, and in this case the mice were treated daily (×10 days) with t-PTER and/or QUER (20 mg/kg of body weight) administered i.v. (the data are mean values±SD corresponding to 25 mice per group). […]

Data set [2] relates to Bcl-2. Briefly: Intracellular levels of Bcl-2 in B16M-F10/Tet-Bcl-2 cells (enzyme immunoassay). The following applies: same exposure, none 160 ± 25. Format: cell-based, mouse.
Text: (§3) The Tet-off gene expression system (Clontech, Palo Alto, Calif., USA) was used for inserting the mouse bcl-2 gene and transfecting the B16M-F10 cells, as described previously (26) and following the manufacturer's instructions. The protein Bcl-2 was quantified in the soluble cytosolic fraction by enzyme immunoassay (27) using a test based on a monoclonal antibody from Sigma (San Luis, Mo., USA) (a Bcl-2 unit was defined as the amount of Bcl-2 protein in 1000 non-transfected B16M-F10 cells).
as §2, with “vivo. For this purpose, mice were inoculated with B16M-F10 control cells or B16M-F10/Tet-Bcl-2 which overexpressed Bcl-2.” for “vivo.”

The test system of the next data set is B16M-F10/Tet-Bcl-2 cells. Briefly: In vivo microscopy: B16M-F10/Tet-Bcl-2 cells adhering to the HSE and intact cells. The arrangement: species or system mice. The following applies: for Intact cells: B16M-F10/Tet-Bcl-2, 6 hours postinjection, none 85 ± 13; for Number of cells adhering to the HSE: B16M-F10/Tet-Bcl-2 precultured with polyphenols, 60 minutes postinjection, none 42 ± 6. On the procedure:
as §1
(§4) This methodology makes it possible for the effect of PTER and QUER to be studied in vivo. For this purpose, mice were inoculated with B16M-F10 control cells or B16M-F10/Tet-Bcl-2 which overexpressed Bcl-2. Both subgroups of cells were cultivated beforehand in the absence or in the presence of t-PTER and QUER. B16M-F10 cells were cultivated for 72 hours. t-RESV (12 μM), t-PTER (40 μM), and QUER (20 μM) were added at 6, 30 and 54 hours of culture time, and were present in each case for just 60 minutes. Then they were removed from the culture flasks by washing (3 times with PBS) and the medium was renewed. The levels of Bcl-2 in the B16M-F10 control cells and cells treated with Tet-Bcl-2 were 24±5 and 105±14 units/mg of protein, respectively (n=5 in each case, P<0.01). The number of adhering cells shown in the table was calculated at 60 minutes postinjection (no significant differences were found when the measurements were effected at 30, 120, 180, 240 or 360 minutes postinjection, data not shown). The number of intact cells was calculated at 6 hours postinjection. The experimental microscopy data in vivo are mean values±SD corresponding to 4-5 different experiments. The growth of metastases in the liver was evaluated as stated in the corresponding section of the description, and in this case the mice were treated daily (×10 days) with t-PTER and/or QUER (20 mg/kg of body weight) administered i.v. (the data are mean values±SD corresponding to 25 mice per group). A similar method and equal number of mice per group were used for evaluating the survival of the carrier animals. The test of significance relates, in all the groups, to comparison between cases with PTER and/or QUER and cases without additions (*P<0.05 and **P<0.01), and to comparison between the B16M-F10/Tet-Bcl-2 cells with the B16M-F10 control cells (^+P<0.05, ^++P<0.01). […] This is the first time that the combined administration in vivo of natural polyphenols has induced inhibition of metastatic growth of a highly malignant tumor and an increase in the survival of the carrier.

In data set [3] the test system is Bcl-2. The data set is described as follows: Intracellular levels of Bcl-2 in B16M-F10 cells (enzyme immunoassay). Format: cell-based, mouse. Conditions: t-PTER 40 μM, QUER 20 μM, 60 minutes at 6, 30 and 54 hours, none 35 ± 5.
Text: as §3
as §2, with “vivo. For this purpose, mice were inoculated with B16M-F10 control cells or B16M-F10/Tet-Bcl-2 which overexpressed Bcl-2.” for “vivo.”

The next data set relates to B16M-F10. The data set is described as follows: Survival of mice carrying B16M-F10 metastases. Format: in vivo. The following applies: for Survival of the carrier: B16M-F10, 20 mg/kg i.v. daily, none 13 ± 2. The protocol:
as §1
This methodology makes it possible for the effect of PTER and QUER to be studied in vivo. For this purpose, mice were inoculated with B16M-F10 control cells or B16M-F10/Tet-Bcl-2 which overexpressed Bcl-2. Both subgroups of cells were cultivated beforehand in the absence or in the presence of t-PTER and QUER. B16M-F10 cells were cultivated for 72 hours. t-RESV (12 μM), t-PTER (40 μM), and QUER (20 μM) were added at 6, 30 and 54 hours of culture time, and were present in each case for just 60 minutes. Then they were removed from the culture flasks by washing (3 times with PBS) and the medium was renewed. The levels of Bcl-2 in the B16M-F10 control cells and cells treated with Tet-Bcl-2 were 24±5 and 105±14 units/mg of protein, respectively (n=5 in each case, P<0.01). The number of adhering cells shown in the table was calculated at 60 minutes postinjection (no significant differences were found when the measurements were effected at 30, 120, 180, 240 or 360 minutes postinjection, data not shown). The number of intact cells was calculated at 6 hours postinjection. […] The growth of metastases in the liver was evaluated as stated in the corresponding section of the description, and in this case the mice were treated daily (×10 days) with t-PTER and/or QUER (20 mg/kg of body weight) administered i.v. (the data are mean values±SD corresponding to 25 mice per group). […]

In data set [4] the test system is B16M-F10 cells. The data set is described as follows: In vivo microscopy: B16M-F10 cells adhering to the HSE and intact cells. Conditions: for Intact cells: B16M-F10, 6 hours postinjection, none 83 ± 14; for Number of cells adhering to the HSE: B16M-F10 precultured with polyphenols, 60 minutes postinjection, none 45 ± 7. Also noted: species or system mice. On the procedure: as §1, §4

Data set [5] has as its system B16M-F10 cells. The data set is described as follows: Levels of free polyphenols in the incubation medium of B16M-F10 cultures. Conditions: throughout the culture time. Format: in vitro ADME.
Data set [6] concerns B16M-F10/Tet-Bcl-2. The data set is described as follows: Growth of hepatic metastases of B16M-F10/Tet-Bcl-2 in mice. Format: in vivo. Conditions: 20 mg/kg i.v. daily x10 days; for Volume of metastases: none 25 ± 6; for Density of metastases: none 29 ± 5. On the procedure: as §1, §4

SMILES strings stand for the structures. Marks after values point to notes of the source that are not given here.

For the compound `COc1cc(/C=C/c2ccc(O)cc2)cc(OC)c1` [PTER, pterostilbene], the results for the “Survival of the carrier” value with B16M-F10/Tet-Bcl-2 [1] and in the data set on B16M-F10 were 12 ± 2 days and 15 ± 2 days, respectively. Further, the figures for the “Intracellular levels of Bcl-2 before inoculation” value in the data set with Bcl-2 [2] and in the data set with Bcl-2 [3] were 151 ± 18^++ units/mg protein and 21 ± 4** units/mg protein, respectively. The values for the Intact cells with B16M-F10/Tet-Bcl-2 cells and in the data set with B16M-F10 cells [4] were 91 ± 20 percentage of cells adhering t and 85 ± 17 percentage of cells adhering t, respectively. Besides, the “Number of cells adhering to the HSE” value in the data set with B16M-F10/Tet-Bcl-2 cells is reported as 21 ± 4** average number per lobe; in the data set with B16M-F10 cells [4], 20 ± 5** average number per lobe. Moreover, the “total levels of free polyphenols in the incubation medium (metabolism by cancer cells)” value with B16M-F10 cells [5] was “remained unchanged”. Also, in the data set with B16M-F10/Tet-Bcl-2 [6], the Volume of metastases is 15 ± 3** percentage of liver volume. The Density of metastases in the data set on B16M-F10/Tet-Bcl-2 [6] was 15 ± 3** number of foci/100 mm^3.

As for `O=c1c(O)c(-c2ccc(O)c(O)c2)oc2cc(O)cc(O)c12` [QUER, quercetin], the “Survival of the carrier” value is 13 ± 2 days with B16M-F10/Tet-Bcl-2 [1] and 15 ± 1 days with B16M-F10. The “Intracellular levels of Bcl-2 before inoculation” value in the data set with Bcl-2 [2] is 125 ± 13*^++ units/mg protein; with Bcl-2 [3] it was 9 ± 3** units/mg protein. For the same compound, the Intact cells in the data set on B16M-F10/Tet-Bcl-2 cells is 87 ± 13^++ percentage of cells adhering t; in the data set on B16M-F10 cells [4], 52 ± 8** percentage of cells adhering t. Moreover, the figures for the “Number of cells adhering to the HSE” value with B16M-F10/Tet-Bcl-2 cells and in the data set on B16M-F10 cells [4] were 40 ± 7 average number per lobe and 46 ± 9 average number per lobe, respectively. The “effect on survival of the carrier host” value with B16M-F10 (B16M-F10 control cells, daily i.v. administration) is “neither of these compounds significantly increased the survival”. The “total levels of free polyphenols in the incubation medium (metabolism by cancer cells)” value with B16M-F10 cells [5] was “remained unchanged”. In addition, in the data set with B16M-F10/Tet-Bcl-2 [6], the Volume of metastases was 24 ± 5^++ percentage of liver volume. Besides, the Density of metastases in the data set on B16M-F10/Tet-Bcl-2 [6] is recorded as 26 ± 516^++ number of foci/100 mm^3.

The record behind these values is patent US8227510B2, “Combine use of pterostilbene and quercetin for the production of cancer treatment medicaments” (Universitat de Valencia, priority 2004, dated 2012).
